These results are taken from patent US10239849B2 (Merck Sharp & Dohme Corp., priority 2015, dated 2019).

The target in assay [1] is T1, glutathione-S-transferase (GST) tagged LXRbeta LBD (ligand binding domain) (Homo sapiens, UniProt P55055).
T1 construct: purchased Invitrogen pv4658.pps
T1 sequence (P55055 222-460 limits assumed): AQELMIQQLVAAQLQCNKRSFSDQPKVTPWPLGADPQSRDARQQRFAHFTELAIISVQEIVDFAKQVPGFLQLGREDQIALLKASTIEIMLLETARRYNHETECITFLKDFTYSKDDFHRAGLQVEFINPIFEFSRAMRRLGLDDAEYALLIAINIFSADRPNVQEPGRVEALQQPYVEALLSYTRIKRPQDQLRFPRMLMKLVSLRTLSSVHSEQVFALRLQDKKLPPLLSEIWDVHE
As to the kind of experiment: LanthaScreen TR-FRET Liver X Receptor Coactivator Assay, LXR beta-LBD. Conditions: for Emax: efficacy in relation to reference dual agonist T1317, read-out: LXR beta activity at max dose (%) (Emax); for EC50: potency (Inflection Point) of co-activator recruitment, TR-FRET, read-out: LXR beta IP. It is filed as biochemical. An outline of the steps:
(§1)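 LXR alpha- or beta-LBD added to test compounds, then fluorescein-labelled coactivator peptide plus terbium anti-GST antibody. After incubation at room temperature, TR-FRET read on a filter-based plate reader.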
A general note: TR-FRET usually uses a lanthanide donor and a delayed reading to cut background.

In assay [2] the target is T2, glutathione-S-transferase (GST) tagged LXRalpha LBD (ligand binding domain) (Homo sapiens, UniProt Q13133).
T2 construct: purchased Invitrogen pv4655
T2 sequence (Q13133 209-447 limits assumed): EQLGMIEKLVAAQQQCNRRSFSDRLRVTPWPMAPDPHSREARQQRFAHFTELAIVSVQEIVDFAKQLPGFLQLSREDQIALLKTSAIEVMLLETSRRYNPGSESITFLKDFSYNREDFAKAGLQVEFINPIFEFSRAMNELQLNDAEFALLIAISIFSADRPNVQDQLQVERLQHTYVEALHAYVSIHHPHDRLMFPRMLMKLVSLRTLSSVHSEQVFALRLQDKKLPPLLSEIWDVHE
The assay is described as follows: LanthaScreen TR-FRET Liver X Receptor Coactivator Assay, LXR alpha-LBD. To be noted: for Emax: efficacy in relation to reference dual agonist T1317, read-out: LXR alpha activity at max dose (%) (Emax); for EC50 / LXR alpha IP (nM): potency (Inflection Point) of co-activator recruitment, TR-FRET; for EC50: read-out: LXR alpha IP. It is filed as biochemical. An outline of the steps:
as §1

Broadly, the Emax is the maximal effect, on the per cent scale that the assay sets. Consider `CN(C)C(=O)c1ccc(-c2cnc(N3CCN(C(=O)C(O)(C4CCCCC4)C(F)(F)F)CC3)c(C#N)c2)cc1Cl` (centres unmarked) [Example 2-33, 2-chloro-4-{5-cyano-6-[4-(2-cyclohexyl-3,3,3-trifluoro-2-hydroxypropanoyl)piperazin-1-yl]pyridin-3-yl}-N,N-dimethylbenzamide], for which the Emax in assay [1] is 115%; in assay [2], 27%. In addition, the EC50 in assay [1] is 0.162 µM; in assay [2] it was 3.29 µM.

As to `CCC(O)(C(=O)N1CCN(c2ncc(-c3ccc(C(=O)N(C)C)c(Cl)c3)cc2C#N)CC1)C(F)(F)F` (centres unmarked) [Example 2-20, 2-chloro-4-(5-cyano-6-{4-[2-hydroxy-2-(trifluoromethyl)butanoyl]piperazin-1-yl}pyridin-3-yl)-N,N-dimethylbenzamide], in assay [1], the Emax was 102% and the EC50 was 0.138 µM. Besides, in assay [2], the Emax was determined as 60% and the EC50 was 6.07 µM.

As for `C=CCN(C(=O)c1ccc(-c2cnc(N3CCN(C(=O)OC(C)(C)C)CC3)c(C#N)c2)cc1Cl)C1CCS(=O)(=O)C1` (centres unmarked) [Example 5-32, tert-butyl 4-(5-{3-chloro-4-[(1,1-dioxidotetrahydro-thiophen-3-yl)(prop-2-en-1-yl)carbamoyl]phenyl}-3-cyanopyridin-2-yl)piperazine-1-carboxylate], in assay [1], the Emax amounted to 78% and the EC50 is 2.21 µM. In addition, in assay [2], the Emax came out at 44% and the EC50 is 23.9 µM.

Consider `COc1ccc(COC(=O)N2CCN(c3ncc(-c4ccc(C(=O)N(C)C)c(Cl)c4)cc3C#N)CC2)cc1` [Example 3-8, 4-methoxybenzyl 4-{5-[3-chloro-4-(dimethylcarbamoyl)phenyl]-3-cyanopyridin-2-yl}piperazine-1-carboxylate], for which, in assay [1], the Emax came to 65% and the EC50 was 0.21 µM. Further, in assay [2], the Emax came to 65% and the EC50 came to 24.6 µM.

On to `CC(C)C(O)(C(=O)N1CCN(c2ccc(-c3ccc(C(=O)N(C)C)c(Cl)c3)cc2)CC1)C(F)(F)F` (centres unmarked) [Example 4-18, 3-chloro-4′-{4-[2-hydroxy-3-methyl-2-(trifluoromethyl)butanoyl]piperazin-1-yl}-N,N-dimethylbiphenyl-4-carboxamide], for which, in assay [1], the Emax worked out at 65% and the EC50 was found to be 0.259 µM. Further, in assay [2], the Emax came out at 20% and the EC50 is 1.29 µM.

`CN(C)C(=O)c1ccc(-c2cnc(N3CCN(C(=O)C4CCCCO4)CC3)c(C#N)c2)cc1Cl` (centres unmarked) [Example 2-6, 2-chloro-4-{5-cyano-6-[4-(tetrahydro-2H-pyran-2-ylcarbonyl)piperazin-1-yl]pyridin-3-yl}-N,N-dimethylbenzamide]: in assay [1], the maximal effect (Emax) amounted to 49% and the EC50 was 1.56 µM. In addition, in assay [2], the Emax turned out to be 16% and the “LXR alpha IP (nM)” value was “No IP”.

Regarding `CN(C)C(=O)c1ccc(-c2ccc(N3CCN(C(=O)c4c(F)cccc4Cl)CC3)cc2)cc1Cl` [Example 4-19, 3-chloro-4′-{4-[(2-chloro-6-fluorophenyl)carbonyl]piperazin-1-yl}-N,N-dimethylbiphenyl-4-carboxamide], in assay [1], the Emax amounted to 93% and the EC50 was 1.27 µM. In assay [2], the Emax came to 20% and the EC50 was found to be 16.9 µM.

For the compound `CN(C)C(=O)c1ccc(-c2cnc(N3CCN(S(=O)(=O)Cc4ccccc4F)CC3)c(C#N)c2)cc1Cl` [Example 1-10, 2-chloro-4-(5-cyano-6-{4-[(2-fluorobenzyl)sulfonyl]piperazin-1-yl}pyridin-3-yl)-N,N-dimethylbenzamide], in assay [1], the Emax turned out to be 65% and the EC50 was 0.162 µM. Further, in assay [2], the Emax is 18% and the EC50 turned out to be 0.733 µM.

For `CN(C)C(=O)c1ccc(-c2cnc(N3CCN(C(=O)[C@](O)(c4ccccc4)C(F)(F)F)CC3)c(C#N)c2)cc1Cl` [Example 2-2, 2-chloro-4-(5-cyano-6-{4-[(2R)-3,3,3-trifluoro-2-hydroxy-2-phenylpropanoyl]piperazin-1-yl}pyridin-3-yl)-N,N-dimethylbenzamide], in assay [1], the Emax came to 102% and the EC50 was found to be 0.001 µM. Further, in assay [2], the Emax is 61% and the EC50 was 0.617 µM.

As for `CN(C)C(=O)c1ccc(-c2cnc(N3CCN(S(=O)(=O)c4c(F)cccc4F)CC3)c(C#N)c2)cc1Cl` [Example 1-17, 2-chloro-4-(5-cyano-6-{4-[(2,6-difluorophenyl)sulfonyl]piperazin-1-yl}pyridin-3-yl)-N,N-dimethylbenzamide], in assay [1], the Emax stood at 98% and the EC50 is 0.043 µM. In assay [2], the Emax worked out at 36% and the EC50 is 4.84 µM.

In the case of `CNC(=O)c1ccc(-c2cnc(N3CCN(C(=O)OC(C)(C)C)CC3)c(C#N)c2)cc1Cl` [Example 5-3, tert-butyl 4-{5-[3-chloro-4-(methylcarbamoyl)phenyl]-3-cyanopyridin-2-yl}piperazine-1-carboxylate], in assay [1], the Emax came out at 82% and the EC50 was 0.176 µM. For the same compound, in assay [2], the Emax turned out to be 76% and the EC50 turned out to be 33.7 µM.

Take `CN(C)C(=O)c1ccc(-c2cnc(N3CCN(C(=O)C(C)(C)c4ccccc4)CC3)c(C#N)c2)cc1Cl` [Example 2-18, 2-chloro-4-{5-cyano-6-[4-(2-methyl-2-phenylpropanoyl)piperazin-1-yl]pyridin-3-yl}-N,N-dimethylbenzamide]: in assay [1], the Emax worked out at 99% and the EC50 was 0.015 µM. Moreover, in assay [2], the Emax came to 43% and the EC50 worked out at 16.4 µM.

Consider `CN(C)C(=O)c1ccc(-c2ccc(N3CCN(C(=O)c4c(F)cccc4C(F)(F)F)CC3)c(Cl)c2)cc1Cl` [Example 4-7, 3,3′-dichloro-4′-(4-{[2-fluoro-6-(trifluoromethyl)phenyl]carbonyl}piperazin-1-yl)-N,N-dimethylbiphenyl-4-carboxamide], for which the figures for the Emax in assay [1] and in assay [2] were 83% and 64%, respectively. For the same compound, the values for the EC50 in assay [1] and in assay [2] were 0.106 µM and 1.28 µM, respectively.

Turning to `CNC(=O)c1ccc(-c2cnc(N3CCN(C(=O)[C@](O)(c4ccccc4)C(F)(F)F)CC3)c(C#N)c2)cc1Cl` [Example 2-28, 2-chloro-4-(5-cyano-6-{4-[(2R)-3,3,3-trifluoro-2-hydroxy-2-phenylpropanoyl]piperazin-1-yl}pyridin-3-yl)-N-methylbenzamide], in assay [1], the Emax turned out to be 98% and the EC50 stood at 0.012 µM. Further, in assay [2], the Emax was 30% and the EC50 was determined as 1.93 µM.

Take `CC(C)(C)OC(=O)N1CCN(c2ncc(-c3ccc(C(N)=O)c(Cl)c3)cc2C#N)CC1` [Example 5-2, tert-butyl 4-[5-(4-carbamoyl-3-chlorophenyl)-3-cyanopyridin-2-yl]piperazine-1-carboxylate]: in assay [1], the Emax is 94% and the EC50 came to 0.094 µM. Further, in assay [2], the Emax came out at 66% and the EC50 was 2.03 µM.

Take `CN(C)C(=O)c1c(Cl)cc(-c2cnc(N3CC4CCC3CN4C(=O)OC(C)(C)C)c(C#N)c2)cc1Cl` (centres unmarked) [Example 7-4, tert-butyl 5-(3-cyano-5-(3,5-dichloro-4-(dimethylcarbamoyl)phenyl)pyridin-2-yl)-2,5-diazabicyclo[2.2.2]octane-2-carboxylate]: the figures for the Emax in assay [1] and in assay [2] were 62% and 11%, respectively. In addition, the EC50 came out at 0.049 µM in assay [1] and 0.671 µM in assay [2].

For the compound `CN(C)C(=O)c1ccc(-c2cnc(N3CCN(S(=O)(=O)Cc4ccccc4Cl)CC3)c(C#N)c2)cc1Cl` [Example 1-12, 2-chloro-4-(6-{4-[(2-chlorobenzyl)sulfonyl]piperazin-1-yl}-5-cyanopyridin-3-yl)-N,N-dimethylbenzamide], in assay [1], the Emax came out at 97% and the EC50 was determined as 0.028 µM. For the same compound, in assay [2], the Emax stood at 27% and the EC50 is 7.41 µM.

As to `CN(C)C(=O)c1ccc(-c2ccc(N3CCCN(C(=O)OC(C)(C)C)CC3)cc2)cc1Cl` [Example 8-1, tert-butyl 4-[3′-chloro-4′-(dimethylcarbamoyl)biphenyl-4-yl]-1,4-diazepane-1-carboxylate], the Emax in assay [1] came to 86%; in assay [2] it was 55%. Also, the EC50 in assay [1] was found to be 0.063 µM; in assay [2] it was 0.936 µM.

Take `CN(C)C(=O)c1ccc(-c2ccc(N3CCN(S(=O)(=O)c4c(Cl)cccc4C(F)(F)F)CC3)c(Cl)c2)cc1Cl` [Example 4-9, 3,3′-dichloro-4′-(4-{[2-chloro-6-(trifluoromethyl)phenyl]sulfonyl}piperazin-1-yl)-N,N-dimethylbiphenyl-4-carboxamide]: the maximal response (Emax) in assay [1] was 96%; in assay [2] it was 51%. Further, the EC50 stood at 0.597 µM in assay [1] and 4.13 µM in assay [2].

Turning to `CC(C)COC(=O)N1CCN(c2ncc(-c3ccc(C(=O)N(C)C)c(Cl)c3)cc2C#N)CC1` [Example 3-2, 2-methylpropyl 4-{5-[3-chloro-4-(dimethylcarbamoyl)phenyl]-3-cyanopyridin-2-yl}piperazine-1-carboxylate], in assay [1], the Emax was 41% and the EC50 is 1.56 µM. Moreover, in assay [2], the Emax was determined as 19% and the “LXR alpha IP (nM)” value is “No IP”.
